The molecules below were run against CDK12 complexed with Cyclin K (Homo sapiens (Human), UniProt Q9NYV4) (assay: CDK enzymatic assay (HTRF, LANCE Ultra kinase assay)). Settings: 60 minutes pre-incubation, 1 mM ATP.
Assay type: biochemical
Protocol: The following activity of the CDK enzymes in complex with their respective cyclins we assayed: CDK1 complexed with Cyclin B1; CDK2 complexed with Cyclin E1; CDK4 complexed with Cyclin D1; CDK6 complexed with Cyclin D1; CDK6 complexed with Cyclin D3; CDK9 complexed with Cyclin T1; CDK7 complexed with Cyclin H/MAT1; CDK2 complexed with Cyclin A2; CDK5 complexed with p35; CDK12 complexed with Cyclin K; CDK13 complexed with Cyclin K. These in vitro enzyme activity are assayed using homogeneous time-resolved energy transfer (HTRF), which measures phosphorylation of a peptide substrate. The LANCE® Ultra kinase assay (PerkinElmer) uses a ULight™-labeled EIF4E-binding protein 1 (THR37/46) peptide (DYSTTPGGTLFSTTPGTRI) (SEQ ID NO: 1) substrate and a Europium-labeled anti-phospho-4E-BP1 antibody (CDK2, CDK1, CDK4, CDK6, CDK9, CDK12, CDK13) or ULight™-labeled Myelin Basic Protein peptide (VTPRTPPP) (SEQ ID NO: 2) substrate and a Europium-labeled anti-phospho-MBP antibody (CDK7). Each CDK enzyme activity assays utilized human CDK co-expressed as N-terminal GST-tagged protein with its full length cyclin partner using a baculovirus expression system.
Enzyme was pre-incubated with compounds for 30 minutes (CDK1,2,4,6,9) or 60 minutes (CDK7, CDK12, CDK13) prior to addition of ATP and Ulight-peptide (1 mM and 50 nM final, respectively), in assay buffer containing 50 mM HEPES pH 7.5, 1 mM EGTA, 10 mM MgCl2, 2 mM DTT, 0.05 mg/mL BSA, and 0.01% Tween 20.
The reaction was then incubated for 60-90 minutes at room temperature. The reactions were stopped by the addition of EDTA and Europium labeled antibody, for a final concentration of 15 mM and 1.0-1.5 nM, respectively. HTRF signals were read after 15-120 minutes. A ratio of fluorescence transferred to the labeled substrate (665 nm) relative to fluorescence of the Europium donor (620 nm) represents the extent of phosphorylation. Ratios for treated wells were normalized to DMSO only (100% activity) and no enzyme (0% activity) controls. Normalized data was analyzed using a three or four parameter dose response curve to determine IC50 for each compound and are shown in Table A. Control reference inhibitors were included on each plate.

Sequence of CDK12 complexed with Cyclin K (Q9NYV4 whole entry): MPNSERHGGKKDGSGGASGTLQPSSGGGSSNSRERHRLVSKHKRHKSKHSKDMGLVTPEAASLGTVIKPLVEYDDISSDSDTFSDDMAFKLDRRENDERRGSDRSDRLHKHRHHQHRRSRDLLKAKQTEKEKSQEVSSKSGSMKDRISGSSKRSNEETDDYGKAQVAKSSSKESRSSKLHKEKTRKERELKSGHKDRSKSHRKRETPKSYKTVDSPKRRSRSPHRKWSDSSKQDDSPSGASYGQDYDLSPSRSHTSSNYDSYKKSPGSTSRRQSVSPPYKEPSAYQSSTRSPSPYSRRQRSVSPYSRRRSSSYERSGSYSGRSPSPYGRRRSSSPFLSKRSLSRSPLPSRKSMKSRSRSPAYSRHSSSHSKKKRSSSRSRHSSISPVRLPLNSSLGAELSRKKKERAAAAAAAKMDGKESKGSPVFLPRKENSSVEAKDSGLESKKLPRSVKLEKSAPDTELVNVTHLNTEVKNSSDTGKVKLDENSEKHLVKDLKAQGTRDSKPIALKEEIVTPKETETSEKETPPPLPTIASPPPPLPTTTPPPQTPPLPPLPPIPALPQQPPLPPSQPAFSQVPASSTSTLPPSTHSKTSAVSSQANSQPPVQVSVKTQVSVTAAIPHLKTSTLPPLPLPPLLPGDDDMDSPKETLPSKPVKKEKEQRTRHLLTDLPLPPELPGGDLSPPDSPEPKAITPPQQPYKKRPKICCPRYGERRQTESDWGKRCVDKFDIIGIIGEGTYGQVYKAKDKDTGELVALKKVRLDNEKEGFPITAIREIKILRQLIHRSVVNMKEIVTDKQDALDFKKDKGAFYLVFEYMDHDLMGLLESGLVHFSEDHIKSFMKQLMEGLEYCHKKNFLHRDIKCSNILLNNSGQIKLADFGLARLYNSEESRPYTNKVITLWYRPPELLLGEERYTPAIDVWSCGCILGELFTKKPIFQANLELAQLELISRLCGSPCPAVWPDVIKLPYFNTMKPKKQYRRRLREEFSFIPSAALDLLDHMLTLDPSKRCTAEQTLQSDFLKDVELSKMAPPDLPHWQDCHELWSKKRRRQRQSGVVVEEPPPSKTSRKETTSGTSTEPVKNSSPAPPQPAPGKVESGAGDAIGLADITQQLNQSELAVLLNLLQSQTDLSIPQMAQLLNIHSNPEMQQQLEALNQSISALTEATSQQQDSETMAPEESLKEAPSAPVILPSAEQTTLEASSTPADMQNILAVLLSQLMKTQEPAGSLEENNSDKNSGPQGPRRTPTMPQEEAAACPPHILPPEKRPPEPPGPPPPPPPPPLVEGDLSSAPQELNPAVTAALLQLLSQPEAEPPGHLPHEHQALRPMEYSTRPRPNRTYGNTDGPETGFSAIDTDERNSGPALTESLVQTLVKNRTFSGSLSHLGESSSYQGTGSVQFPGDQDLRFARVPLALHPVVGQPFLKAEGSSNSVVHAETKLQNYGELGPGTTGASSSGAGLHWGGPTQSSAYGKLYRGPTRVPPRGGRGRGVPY
Sequence of CDK12 complexed with Cyclin K (O75909 whole entry partner): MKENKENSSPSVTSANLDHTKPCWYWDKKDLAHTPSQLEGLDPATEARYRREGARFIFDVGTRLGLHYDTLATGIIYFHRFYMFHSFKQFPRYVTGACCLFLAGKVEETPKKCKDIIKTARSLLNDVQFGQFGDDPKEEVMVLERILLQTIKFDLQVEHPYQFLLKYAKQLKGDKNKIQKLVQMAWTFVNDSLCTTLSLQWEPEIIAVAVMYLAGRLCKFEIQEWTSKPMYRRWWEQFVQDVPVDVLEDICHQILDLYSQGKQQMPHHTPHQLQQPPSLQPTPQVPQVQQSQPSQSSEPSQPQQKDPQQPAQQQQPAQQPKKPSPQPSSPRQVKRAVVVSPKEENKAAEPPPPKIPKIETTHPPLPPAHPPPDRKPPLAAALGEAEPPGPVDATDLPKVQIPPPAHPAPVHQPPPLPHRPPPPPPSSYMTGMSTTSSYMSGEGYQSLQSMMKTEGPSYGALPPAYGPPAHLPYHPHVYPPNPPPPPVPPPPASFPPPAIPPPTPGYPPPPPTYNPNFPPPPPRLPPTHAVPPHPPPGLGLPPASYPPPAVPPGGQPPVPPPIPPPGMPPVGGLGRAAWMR

| Structure (SMILES) | IC50 [nM] |
| --- | --- |
| N#Cc1cnc(N[C@@H]2CCC[C@H](n3cnc4cccnc43)C2)nc1-c1cnn(CC(F)F)c1 [Example 11, 2-(((1R,3S)-3-(3H-Imidazo[4,5-b]pyridin-3-yl)cyclohexyl)amino)-4-(1-(2,2-difluoroethyl)-1H-pyrazol-4-yl)pyrimidine-5-carbonitrile] | < 50 |
| FC(F)Cn1cc(-c2nc(N[C@@H]3CCC[C@H](n4cnc5cccnc54)C3)ncc2C(F)(F)F)cn1 [Example 12, N-((1R,3S)-3-(3H-Imidazo[4,5-b]pyridin-3-yl)cyclohexyl)-4-(1-(2,2-difluoroethyl)-1H-pyrazol-4-yl)-5-(trifluoromethyl)pyrimidin-2-amine] | < 50 |
| N#Cc1cnc2c(c1)ncn2[C@H]1CCC[C@@H](Nc2ncc(Cl)c(-c3cnn(CC(F)F)c3)n2)C1 [Example 14, 3-((1S,3R)-3-((5-Chloro-4-(1-(2,2-difluoroethyl)-1H-pyrazol-4-yl)pyrimidin-2-yl)amino)cyclohexyl)-3H-imidazo[4,5-b]pyridine-6-carbonitrile] | < 50 |
| N#Cc1cnc2c(ccn2[C@H]2CCC[C@@H](Nc3ncc(C(F)(F)F)c(-c4cnn(CC(F)F)c4)n3)C2)c1 [Example 15, 1-((1S,3R)-3-((4-(1-(2,2-Difluoroethyl)-1H-pyrazol-4-yl)-5-(trifluoromethyl)pyrimidin-2-yl)amino)cyclohexyl)-1H-pyrrolo[2,3-b]pyridine-5-carbonitrile] | < 50 |
| N#Cc1ccc2c(ccn2[C@H]2CCC[C@@H](Nc3ncc(C(F)(F)F)c(-c4cnn(CC(F)F)c4)n3)C2)c1 [Example 16, 1-((1S,3R)-3-((4-(1-(2,2-Difluoroethyl)-1H-pyrazol-4-yl)-5-(trifluoromethyl)pyrimidin-2-yl)amino)cyclohexyl)-1H-indole-5-carbonitrile] | 50 to 500 |
| Cc1c(-c2nc(N[C@@H]3CCC[C@H](n4cnc5cccnc54)C3)ncc2C#N)cnn1C [Example 17, 2-(((1R,3S)-3-(3H-Imidazo[4,5-b]pyridin-3-yl)cyclohexyl)amino)-4-(1,5-dimethyl-1H-pyrazol-4-yl)pyrimidine-5-carbonitrile] | 50 to 500 |
| N#Cc1cnc(N[C@@H]2CCC[C@H](n3cnc4cccnc43)C2)nc1-c1cnn2c1CCC2 [Example 18, 2-(((1R,3S)-3-(3H-Imidazo[4,5-b]pyridin-3-yl)cyclohexyl)amino)-4-(5,6-dihydro-4H-pyrrolo[1,2-b]pyrazol-3-yl)pyrimidine-5-carbonitrile] | < 50 |
| Cc1nn(C)cc1-c1nc(N[C@@H]2CCC[C@H](n3cnc4cccnc43)C2)ncc1C#N [Example 19, 2-(((1R,3S)-3-(3H-Imidazo[4,5-b]pyridin-3-yl)cyclohexyl)amino)-4-(1,3-dimethyl-1H-pyrazol-4-yl)pyrimidine-5-carbonitrile] | > 500 |
| Cn1ncc(-c2nc(N[C@@H]3CCC[C@H](n4cnc5cccnc54)C3)ncc2C#N)c1C#N [Example 20, 2-(((1R,3S)-3-(3H-Imidazo[4,5-b]pyridin-3-yl)cyclohexyl)amino)-4-(5-cyano-1-methyl-1H-pyrazol-4-yl)pyrimidine-5-carbonitrile] | 50 to 500 |
| N#Cc1cnc(N[C@@H]2CCC[C@H](n3cnc4cccnc43)C2)nc1-c1c[nH]nc1C1CC1 [Example 21, 2-(((1R,3S)-3-(3H-Imidazo[4,5-b]pyridin-3-yl)cyclohexyl)amino)-4-(3-cyclopropyl-1H-pyrazol-4-yl)pyrimidine-5-carbonitrile] | < 50 |
| Cn1nccc1-c1nc(N[C@@H]2CCC[C@H](n3cnc4cccnc43)C2)ncc1C#N [Example 22, 2-(((1R,3S)-3-(3H-Imidazo[4,5-b]pyridin-3-yl)cyclohexyl)amino)-4-(1-methyl-1H-pyrazol-5-yl)pyrimidine-5-carbonitrile] | > 500 |
| Cn1ncc(-c2nc(N[C@@H]3CCC[C@H](n4cnc5cccnc54)C3)ncc2C#N)c1C(F)(F)F [Example 23, 2-(((1R,3S)-3-(3H-Imidazo[4,5-b]pyridin-3-yl)cyclohexyl)amino)-4-(1-methyl-5-(trifluoromethyl)-1H-pyrazol-4-yl)pyrimidine-5-carbonitrile] | 50 to 500 |
| CCn1cc(-c2nc(N[C@@H]3CCC[C@H](n4cnc5cccnc54)C3)ncc2C#N)cn1 [Example 24, 2-(((1R,3S)-3-(3H-Imidazo[4,5-b]pyridin-3-yl)cyclohexyl)amino)-4-(1-ethyl-1H-pyrazol-4-yl)pyrimidine-5-carbonitrile] | < 50 |
| N#Cc1cnc(N[C@@H]2CCC[C@H](n3cnc4cccnc43)C2)nc1-c1cnn2c1OCCC2 [Example 25, 2-(((1R,3S)-3-(3H-Imidazo[4,5-b]pyridin-3-yl)cyclohexyl)amino)-4-(6,7-dihydro-5H-pyrazolo[5,1-b][1,3]oxazin-3-yl)pyrimidine-5-carbonitrile] | 50 to 500 |
| Cn1ncc(-c2nc(N[C@@H]3CCC[C@H](n4cnc5cccnc54)C3)ncc2C#N)c1CO [Example 26, 2-(((1R,3S)-3-(3H-Imidazo[4,5-b]pyridin-3-yl)cyclohexyl)amino)-4-(5-(hydroxymethyl)-1-methyl-1H-pyrazol-4-yl)pyrimidine-5-carbonitrile] | 50 to 500 |
| CC(C)n1cnc(-c2nc(N[C@@H]3CCC[C@H](n4cnc5cccnc54)C3)ncc2C#N)c1 [Example 27, 2-(((1R,3S)-3-(3H-Imidazo[4,5-b]pyridin-3-yl)cyclohexyl)amino)-4-(1-isopropyl-1H-imidazol-4-yl)pyrimidine-5-carbonitrile] | < 50 |
| Cc1cnc(-c2nc(N[C@@H]3CCC[C@H](n4cnc5cc(C#N)cnc54)C3)ncc2C#N)n1C [Example 29, 3-((1S,3R)-3-((5-Cyano-4-(1,5-dimethyl-1H-imidazol-2-yl)pyrimidin-2-yl)amino)cyclohexyl)-3H-imidazo[4,5-b]pyridine-6-carbonitrile] | 50 to 500 |
| Cc1c(Nc2nc(N[C@@H]3CCC[C@H](n4cnc5cc(C#N)cnc54)C3)ncc2C#N)cnn1C [Example 30, 3-((1S,3R)-3-((5-Cyano-4-((1,5-dimethyl-1H-pyrazol-4-yl)amino)pyrimidin-2-yl)amino)cyclohexyl)-3H-imidazo[4,5-b]pyridine-6-carbonitrile] | 50 to 500 |
| N#Cc1cnc(N[C@@H]2CCC[C@H](n3cnc4cncc(C#N)c43)C2)nc1-c1cnn(CC(F)F)c1 [Example 31, 1-((1S,3R)-3-((5-Cyano-4-(1-(2,2-difluoroethyl)-1H-pyrazol-4-yl)pyrimidin-2-yl)amino)cyclohexyl)-1H-imidazo[4,5-c]pyridine-7-carbonitrile] | < 50 |
| N#Cc1cnc(N[C@@H]2CCC[C@H](n3cnc4cncc(C#N)c43)C2)nc1-c1cnn(CCO)c1 [Example 32, 1-((1S,3R)-3-((5-Cyano-4-(1-(2-hydroxyethyl)-1H-pyrazol-4-yl)pyrimidin-2-yl)amino)cyclohexyl)-1H-imidazo[4,5-c]pyridine-7-carbonitrile] | < 50 |
| CC(C)n1cc(-c2nc(N[C@@H]3CCC[C@H](n4cnc5cncc(C#N)c54)C3)ncc2C#N)cn1 [Example 33, 1-((1S,3R)-3-((5-Cyano-4-(1-isopropyl-1H-pyrazol-4-yl)pyrimidin-2-yl)amino)cyclohexyl)-1H-imidazo[4,5-c]pyridine-7-carbonitrile] | < 50 |
| N#Cc1cnc(N[C@@H]2CCC[C@H](n3cnc4cncc(C#N)c43)C2)nc1-c1cnn(C2CC2)c1 [Example 34, 1-((1S,3R)-3-((5-Cyano-4-(1-cyclopropyl-1H-pyrazol-4-yl)pyrimidin-2-yl)amino)cyclohexyl)-1H-imidazo[4,5-c]pyridine-7-carbonitrile] | < 50 |
| N#Cc1cnc2c(c1)ncn2[C@@H]1CCC[C@H](Nc2ncc(C#N)c(-c3cnn(CC(F)F)c3)n2)C1 [Example 35, 3-((1R,3S)-3-((5-Cyano-4-(1-(2,2-difluoroethyl)-1H-pyrazol-4-yl)pyrimidin-2-yl)amino)cyclohexyl)-3H-imidazo[4,5-b]pyridine-6-carbonitrile] | > 500 |
| N#Cc1cnc(N[C@@H]2CCC[C@H](n3cnc4cc(F)cc(Cl)c43)C2)nc1-c1cnn(CC(F)F)c1 [Example 36, 2-(((1R,3S)-3-(7-Chloro-5-fluoro-1H-benzo[d]imidazol-1-yl)cyclohexyl)amino)-4-(1-(2,2-difluoroethyl)-1H-pyrazol-4-yl)pyrimidine-5-carbonitrile] | < 50 |
| N#Cc1cnc2c(c1)ncn2[C@H]1CCC[C@@H](Nc2ncc(C#N)c(-c3cnn(C4CCC4)c3)n2)C1 [Example 38, 3-((1S,3R)-3-((5-Cyano-4-(1-cyclobutyl-1H-pyrazol-4-yl)pyrimidin-2-yl)amino)cyclohexyl)-3H-imidazo[4,5-b]pyridine-6-carbonitrile] | < 50 |
